Reference: PubChem BioAssay (NCI)
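Assay format: 96-well plates, 48-hour exposure. TGI denotes the concentration required for complete inhibition of growth.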

Legend:
Test in all cases: NCI tumour cell line growth inhibition, 48 h
[1] = test system: DLD-1 colon
[2] = test system: HT29 colon
[3] = test system: CCRF-CEM leukemia
[4] = test system: NCI/ADR-RES ovarian
[5] = test system: SNB-78 CNS
[6] = test system: DMS 114 small cell lung
[7] = test system: MALME-3M melanoma
[8] = test system: U251 CNS
[9] = test system: NCI-H522 lung
[10] = test system: COLO 205 colon
[11] = test system: HCT-15 colon
[12] = test system: OVCAR-4 ovarian
[13] = test system: SK-MEL-2 melanoma
[14] = test system: NCI-H460 lung
[15] = test system: UACC-257 melanoma
[16] = test system: OVCAR-5 ovarian
[17] = test system: SW-620 colon
[18] = test system: KM20L2 colon
[19] = test system: P388 leukemia
[20] = test system: SNB-19 CNS
[21] = test system: CAKI-1 renal
[22] = test system: XF 498 CNS
[23] = test system: UACC-62 melanoma
[24] = test system: KM12 colon
[25] = test system: EKVX NSCLC
[26] = test system: LOX IMVI melanoma
[27] = test system: RXF 393 renal
[28] = test system: SF-268 CNS
[29] = test system: SK-MEL-5 melanoma
[30] = test system: HCC-2998 colon
[31] = test system: OVCAR-3 ovarian
[32] = test system: SK-MEL-28 melanoma
[33] = test system: DMS 273 small cell lung
[34] = test system: OVCAR-8 ovarian
[35] = test system: SNB-75 CNS
[36] = test system: SF-295 CNS
[37] = test system: K-562 leukemia
[38] = test system: M19-MEL melanoma
[39] = test system: NCI-H23 lung
[40] = test system: HOP-62 NSCLC
[41] = test system: MCF7 breast
[42] = test system: RPMI-8226 leukemia
[43] = test system: SK-OV-3 ovarian
[44] = test system: UO-31 renal
[45] = test system: HL-60(TB) leukemia
[46] = test system: IGROV1 ovarian
[47] = test system: SN12K1 renal
[48] = test system: NCI-H226 lung
[49] = test system: SN12C renal
[50] = test system: MOLT-4 leukemia
[51] = test system: HCT-116 colon
[52] = test system: P388/ADR leukemia
[53] = test system: HOP-92 NSCLC
[54] = test system: SF-539 CNS
[55] = test system: A498 renal
[56] = test system: A549 NSCLC
[57] = test system: HOP-18 NSCLC

`CC1C(=O)C(C)C(c2cccs2)N(N=O)C1c1cccs1` (configuration not stated) showed a TGI [1] greater than 100 µM, a TGI [2] greater than 100 µM and a TGI [3] greater than 100 µM. It also gave a TGI [4] greater than 100 µM, a TGI [5] greater than 100 µM and a TGI [6] greater than 100 µM. For the same molecule, the TGI [7] was greater than 19.7 µM, the TGI [8] was greater than 100 µM and the TGI [9] was greater than 100 µM. For the same molecule, the TGI [10] was greater than 100 µM, the TGI [11] was greater than 100 µM and the TGI [12] was greater than 100 µM. The TGI [13] was greater than 100 µM, the TGI [14] was greater than 100 µM and the TGI [15] was greater than 100 µM. The TGI [16] was greater than 100 µM, the TGI [17] was greater than 100 µM and the TGI [18] was greater than 100 µM. The TGI [19] was greater than 100 µM, the TGI [20] was greater than 100 µM and the TGI [21] was greater than 100 µM. It also gave a TGI [22] greater than 100 µM, a TGI [23] greater than 100 µM and a TGI [24] greater than 100 µM. The TGI [25] was greater than 100 µM, the TGI [26] was greater than 100 µM and the TGI [27] was greater than 100 µM. The TGI [28] was greater than 100 µM, the TGI [29] was greater than 100 µM and the TGI [30] was greater than 100 µM. The TGI [31] was greater than 100 µM, the TGI [32] was greater than 100 µM and the TGI [33] was greater than 100 µM. For the same molecule, the TGI [34] was greater than 100 µM, the TGI [35] was greater than 93 µM and the TGI [36] was greater than 100 µM. It also gave a TGI [37] greater than 100 µM, a TGI [38] greater than 100 µM and a TGI [39] greater than 100 µM. The TGI [40] was greater than 100 µM, the TGI [41] was greater than 100 µM and the TGI [42] was greater than 100 µM. The TGI [43] was greater than 100 µM, the TGI [44] was greater than 100 µM and the TGI [45] was greater than 100 µM. It also gave a TGI [46] greater than 100 µM, a TGI [47] greater than 100 µM and a TGI [48] greater than 100 µM. It also gave a TGI [49] greater than 100 µM, a TGI [50] greater than 100 µM and a TGI [51] greater than 100 µM. The TGI [52] was greater than 100 µM, the TGI [53] was greater than 100 µM and the TGI [54] was greater than 100 µM. It also gave a TGI [55] greater than 100 µM and a TGI [56] greater than 100 µM.

`O=C1ON(Cc2ccccc2)C(c2ccccc2)N1c1ccccc1` (configuration not stated) was tested, and the TGI [1] was greater than 100 µM, the TGI [2] was greater than 100 µM and the TGI [3] was greater than 100 µM. For the same molecule, the TGI [4] was greater than 100 µM, the TGI [5] was greater than 100 µM and the TGI [6] was greater than 100 µM. The TGI [7] was greater than 100 µM, the TGI [8] was greater than 100 µM and the TGI [9] was greater than 100 µM. The TGI [10] was greater than 100 µM, the TGI [11] was greater than 100 µM and the TGI [12] was greater than 100 µM. For the same molecule, the TGI [13] was greater than 100 µM, the TGI [14] was greater than 100 µM and the TGI [15] was greater than 100 µM. It also gave a TGI [16] greater than 100 µM, a TGI [17] greater than 100 µM and a TGI [18] greater than 100 µM. The TGI [19] was greater than 100 µM, the TGI [20] was greater than 100 µM and the TGI [22] was greater than 100 µM. For the same molecule, the TGI [23] was greater than 100 µM, the TGI [24] was greater than 100 µM and the TGI [25] was greater than 100 µM. The TGI [26] was greater than 100 µM, the TGI [27] was greater than 100 µM and the TGI [28] was greater than 100 µM. For the same molecule, the TGI [29] was greater than 100 µM, the TGI [30] was greater than 100 µM and the TGI [31] was greater than 100 µM. The TGI [32] was greater than 100 µM, the TGI [33] was greater than 100 µM and the TGI [34] was greater than 100 µM. The TGI [35] was greater than 100 µM, the TGI [36] was greater than 100 µM and the TGI [37] was greater than 100 µM. It also gave a TGI [38] greater than 100 µM, a TGI [39] greater than 100 µM and a TGI [57] greater than 100 µM. For the same molecule, the TGI [40] was greater than 100 µM, the TGI [41] was greater than 100 µM and the TGI [42] was greater than 100 µM. For the same molecule, the TGI [43] was greater than 100 µM, the TGI [44] was greater than 100 µM and the TGI [45] was greater than 100 µM. It also gave a TGI [46] greater than 100 µM, a TGI [47] greater than 100 µM and a TGI [48] greater than 100 µM. For the same molecule, the TGI [49] was greater than 100 µM, the TGI [50] was greater than 100 µM and the TGI [51] was greater than 100 µM. It also gave a TGI [52] greater than 100 µM, a TGI [53] greater than 100 µM and a TGI [54] greater than 100 µM. For the same molecule, the TGI [55] was greater than 100 µM and the TGI [56] was greater than 100 µM.
